Assay results: ChEMBL document CHEMBL3124888, “Inhibiting the HIV integration process: past, present, and the future” (J Med Chem, 2014)
Values after ≈ are worked out from the molar mass of the structure shown.

Legend:
[1] = test system: Human immunodeficiency virus 1; experiment: Antiviral activity against HIV-1 by cell-based assay; type: functional, organism-based
[2] = Selectivity index, ratio of CC50 for human MT4 cells to EC50 for HIV-1 infected in human MT4 cells; type: toxicity, cell-based; settings: read-out: Ratio CC50/EC50
[3] = test system: Human immunodeficiency virus 1; experiment: Antiviral activity against HIV-1 infected in human MT4 cells assessed as reduction of virus-induced cytopathic effect by MTT assay; type: functional, organism-based; settings: Human immunodeficiency virus 1, MT4
[4] = test system: Human immunodeficiency virus 1; experiment: Antiviral activity against HIV-1 harboring integrase Y143C mutant relative to wild type HIV1; type: functional
[5] = test system: Human immunodeficiency virus 1; experiment: Antiviral activity against HIV-1 harboring integrase R263K mutant relative to wild type HIV1; type: functional
[6] = test system: Human immunodeficiency virus 1; experiment: Antiviral activity against HIV-1 harboring integrase E92Q mutant relative to wild type HIV1; type: functional
[7] = test system: Human immunodeficiency virus 1; experiment: Antiviral activity against HIV-1 harboring integrase G140S mutant relative to wild type HIV1; type: functional
[8] = test system: Human immunodeficiency virus 1; experiment: Antiviral activity against HIV-1 harboring integrase Q148R mutant relative to wild type HIV1; type: functional
[9] = test system: Human immunodeficiency virus 1; experiment: Antiviral activity against HIV-1 harboring integrase E92Q/N155H double mutant relative to wild type HIV1; type: functional
[10] = test system: Human immunodeficiency virus 1; experiment: Antiviral activity against HIV-1 harboring integrase G118R mutant relative to wild type HIV1; type: functional
[11] = test system: Human immunodeficiency virus 1; experiment: Antiviral activity against HIV-1 harboring integrase Q148H mutant relative to wild type HIV1; type: functional
[12] = test system: Human immunodeficiency virus 1; experiment: Antiviral activity against HIV-1 harboring integrase E138K mutant relative to wild type HIV1; type: functional
[13] = test system: Human immunodeficiency virus 1; experiment: Antiviral activity against HIV-1 harboring integrase N155H mutant relative to wild type HIV1; type: functional
[14] = test system: Human immunodeficiency virus
[15] = test system: Human immunodeficiency virus 1; experiment: Antiviral activity against HIV-1 harboring integrase G140S/Q148K double mutant relative to wild type HIV1; type: functional
[16] = test system: Human immunodeficiency virus 1; experiment: Antiviral activity against HIV-1 harboring integrase T66R mutant relative to wild type HIV1; type: functional
[17] = test system: Human immunodeficiency virus 1; experiment: Antiviral activity against HIV-1 harboring integrase Y143R mutant relative to wild type HIV1; type: functional
[18] = test system: Human immunodeficiency virus 1; experiment: Antiviral activity against HIV-1 harboring integrase Q148K mutant relative to wild type HIV1; type: functional
[19] = test system: Human immunodeficiency virus 1; experiment: Antiviral activity against HIV-1 harboring integrase G140S/Q148H double mutant relative to wild type HIV1; type: functional
[20] = Inhibition of HIV-1 recombinant His6-tagged integrase/human LEDGF-75 interaction expressed in Escherichia coli BL21(DE3) by SDS PAGE analysis
[21] = test system: Human immunodeficiency virus 1; experiment: Antiviral activity against HIV-1 harboring integrase T97A mutant relative to wild type HIV1; type: functional
[22] = Tmax in rat; type: ADME, organism-based; settings: in vivo
[23] = test system: Human immunodeficiency virus 1; experiment: Antiviral activity against HIV-1 harboring integrase T66I/R263K double mutant relative to wild type HIV1; type: functional
[24] = Tmax in dog; type: ADME, organism-based, Canis lupus familiaris; settings: in vivo
[25] = test system: Human immunodeficiency virus 1; experiment: Antiviral activity against HIV-1 harboring integrase T97A/Y143R double mutant relative to wild type HIV1; type: functional
[26] = test system: Human immunodeficiency virus 1; experiment: Antiviral activity against HIV-1 harboring integrase E138K/Q148H double mutant relative to wild type HIV1; type: functional
[27] = test system: Human immunodeficiency virus 1; experiment: Antiviral activity against HIV-1 harboring integrase E138K/Q148K double mutant relative to wild type HIV1; type: functional
[28] = test system: Human immunodeficiency virus 1; experiment: Antiviral activity against HIV-1 harboring integrase T66I mutant relative to wild type HIV1; type: functional
[29] = Oral bioavailability in rat; type: ADME, organism-based; settings: in vivo
[30] = test system: Human immunodeficiency virus 1; experiment: Antiviral activity against HIV1 3B infected in human MT4 cells assessed as inhibition of viral infection after 5 days by MTT assay in presence of human serum; type: functional; settings: Human immunodeficiency virus 1, 3B, MT4, 120 h
[31] = test system: Human immunodeficiency virus 1; experiment: Antiviral activity against HIV-1 harboring integrase T97A/Y143C double mutant relative to wild type HIV1; type: functional
[32] = biological target: T1, Human immunodeficiency virus type 1 integrase (Human immunodeficiency virus 1, UniProt Q7ZJM1); experiment: Inhibition of HIV-1 integrase binding to viral DNA by SPR-based competitive assay
[33] = test system: Human immunodeficiency virus 1; experiment: Antiviral activity against HIV-1 3B infected in human C8166 cells assessed as inhibition of viral replication by MTT assay; type: functional, organism-based; settings: Human immunodeficiency virus 1, 3B
[34] = Inhibition of HIV-1 His6-tagged integrase/Flag-tagged LEDGF-75 (unknown origin) interaction by AlphaScreen assay
[35] = test system: Human immunodeficiency virus 1; experiment: Antiviral activity against HIV-1 NL4-3 infected in human HuT78 cells assessed as inhibition of viral p24 production incubated for 4 days followed by compound washout measured after 48 hrs; type: functional, organism-based; settings: Human immunodeficiency virus 1, NL4-3, HuT78
[36] = biological target: T1, Human immunodeficiency virus type 1 integrase; experiment: Inhibition of HIV1 integrase strand transfer activity
[37] = biological target: T1, Human immunodeficiency virus type 1 integrase; experiment: Inhibition of HIV-1 integrase 3'-end processing activity
[38] = Inhibition of HIV1 integrase/LEDGF-75 (unknown origin) interaction
[39] = test system: Human immunodeficiency virus 1; experiment: Antiviral activity against HIV-1 harboring integrase E92V mutant relative to wild type HIV1; type: functional
[40] = test system: Human immunodeficiency virus 1; experiment: Antiviral activity against HIV-1 harboring integrase G140C mutant relative to wild type HIV1; type: functional
[41] = biological target: T1, Human immunodeficiency virus type 1 integrase; experiment: Inhibition of HIV-1 integrase 3'-end processing activity preincubated for 30 mins followed by 5'-end 32P-labeled linear double-stranded oligonucleotide addition
[42] = biological target: T1, Human immunodeficiency virus type 1 integrase; experiment: Inhibition of HIV-1 integrase strand transfer activity preincubated for 30 mins followed by 5'-end 32P-labeled linear double-stranded oligonucleotide addition

## CCOc1cc(/C=C2\SC(=O)N(CC(=O)c3ccccc3)C2=O)c(Br)cc1OCc1ccc(C(=O)O)cc1
[1]
  EC50: 23.8 µg/mL

## Cc1ccc(-c2c(C(OC(C)(C)C)C(=O)O)cnc3sc(C)cc23)cc1 (configuration not stated)
[2]
  selectivity ratio: 1390
[3]
  EC50: 0.069 µM

## CCN1C[C@H](C)n2c(c(O)c3c(=O)n(Cc4ccc(F)c(Cl)c4)nc(C(=O)NC)c32)C1=O
[4]
  fold change (FC): 2
[5]
  fold change (FC): <2
[6]
  fold change (FC): <2
[7]
  fold change (FC): 2
[8]
  fold change (FC): 2
[9]
  fold change (FC): 2
[10]
  fold change (FC): 2
[11]
  fold change (FC): 2
[12]
  fold change (FC): 2
[13]
  fold change (FC): 2
[14]
  T1/2: 1920 min
[15]
  fold change (FC): 2
[16]
  fold change (FC): <2
[17]
  fold change (FC): 2
[18]
  fold change (FC): <2
[19]
  fold change (FC): 10

## CCCC(C(=O)O)c1c(C)nc2ccc(Cl)cc2c1-c1ccccc1 (configuration not stated)
[1]
  EC50: 2.35 µM
[20]
  IC50: 1.37 µM

## COc1cc2c(cc1Cc1cccc(Cl)c1F)c(=O)c(C(=O)O)cn2[C@H](CO)C(C)C
[4]
  fold change (FC): <2
[21]
  fold change (FC): 2
[5]
  fold change (FC): 2
[6]
  fold change (FC): 20
[7]
  fold change (FC): 2
[8]
  fold change (FC): 50
[22]
  Tmax: 30 min
[23]
  fold change (FC): >100
[9]
  fold change (FC): >100
[10]
  fold change (FC): <2
[11]
  fold change (FC): 2
[12]
  fold change (FC): 2
[13]
  fold change (FC): 20
[24]
  Tmax: 30 min
[15]
  fold change (FC): >100
[16]
  fold change (FC): 50
[25]
  fold change (FC): <2
[26]
  fold change (FC): 10
[27]
  fold change (FC): >100
[28]
  fold change (FC): >10
[17]
  fold change (FC): <2
[29]
  bioavailability: 30%
[30]
  EC90: 0.0017 µM
[31]
  fold change (FC): <2
[18]
  fold change (FC): 50
[19]
  fold change (FC): >100

## C[C@@H]1CCO[C@H]2Cn3cc(C(=O)NCc4ccc(F)cc4F)c(=O)c(O)c3C(=O)N12 [DOLUTEGRAVIR]
[4]
  fold change (FC): <2
[21]
  fold change (FC): <2
[5]
  fold change (FC): 10
[6]
  fold change (FC): 2
[7]
  fold change (FC): <2
[8]
  fold change (FC): <2
[9]
  fold change (FC): 2
[10]
  fold change (FC): 2
[11]
  fold change (FC): <2
[12]
  fold change (FC): 2
[13]
  fold change (FC): <2
[15]
  fold change (FC): <2
[16]
  fold change (FC): <2
[25]
  fold change (FC): <2
[26]
  fold change (FC): 2
[27]
  fold change (FC): >100
[17]
  fold change (FC): <2
[31]
  fold change (FC): <2
[18]
  fold change (FC): <2
[19]
  fold change (FC): <2

## O=C(CN1CCCC1)Nc1ccc(Cc2ccc(NC(=O)CN3CCCC3)cc2)cc1
[32]
  IC50: 7.29 µM
[33]
  EC50: 17.1 µg/mL (≈ 40.5 µM)

## C=CCN(Cc1ccccc1C(=O)NC(c1ccc(OC)cc1)c1ccc(OC)cc1)Cc1ccc2c(c1C(=O)O)OCO2
[34]
  IC50: 8.1 µM
[35]
  EC50: 29 µM

## COC(=O)[C@H](COC(=O)/C=C/c1ccc(OC(C)=O)c(OC(C)=O)c1)NC(=O)/C=C/c1ccc(OC(C)=O)c(OC(C)=O)c1
[36]
  IC50: 3 µM
[37]
  IC50: 3 µM

## C[C@@](Cc1ccc(O)c(O)c1)(NN)C(=O)O [CARBIDOPA]
[38]
  IC50: 6.54 µM

## Cc1nnc(C(=O)NC(C)(C)c2nc(C(=O)NCc3ccc(F)cc3)c(O)c(=O)n2C)o1
[39]
  fold change (FC): >5
[4]
  fold change (FC): 2
[21]
  fold change (FC): 2
[5]
  fold change (FC): <2
[40]
  fold change (FC): >5
[6]
  fold change (FC): 2
[7]
  fold change (FC): 2
[8]
  fold change (FC): 20
[23]
  fold change (FC): <2
[9]
  fold change (FC): 50
[10]
  fold change (FC): 2
[11]
  fold change (FC): 10
[12]
  fold change (FC): 2
[13]
  fold change (FC): 20
[14]
  T1/2: > 438 min
[15]
  fold change (FC): >100
[16]
  fold change (FC): 2
[25]
  fold change (FC): >100
[26]
  fold change (FC): <2
[27]
  fold change (FC): 10
[17]
  fold change (FC): 20
[31]
  fold change (FC): >100
[18]
  fold change (FC): 50
[19]
  fold change (FC): >100

## CCCCc1ncc(/C=C(\Cc2cccs2)C(=O)O)n1Cc1ccc(C(=O)O)cc1 [EPROSARTAN]
[38]
  IC50: 36.9 µM

## O=C(c1ccccc1)c1ccc(C(c2c(O)c3ccccc3oc2=O)c2c(O)c3ccccc3oc2=O)cc1
[41]
  IC50: 27 µM
[42]
  IC50: 18 µM

## CC(C)c1c(C(=O)Nc2ccccc2)c(-c2ccccc2)c(-c2ccc(F)cc2)n1CC[C@@H](O)C[C@@H](O)CC(=O)O [ATORVASTATIN]
[38]
  IC50: 8.9 µM
